This note sets out measurements from BindingDB's records for doi:10.1016/j.bmcl.2004.01.013 (University of Arizona, 2004).

The target of this assay is Ceramide glucosyltransferase (Canis familiaris). The assay can be described thus: Inhibitory concentration against glucosylceramide synthase in MDCK cell line.

Broadly, the IC50 is the concentration that inhibits the measured activity by half. Read a high IC50 as weaker potency in that assay. Consider `CCCCCCCCCCCCCCCC(=O)NC(CN1CCCC1)C(O)c1ccc(O)cc1` (configuration not stated) [Hexadecanoic acid [2-hydroxy-2-(4-hydroxy-phenyl)-1-pyrrolidin-1-ylmethyl-ethyl]-amide], for which the IC50 amounted to 90 nM.

Regarding `CCCCCCCCCCCCCCCC(=O)NC(CN1CCCC1)C(O)c1ccc2c(c1)OCCO2` (configuration not stated) [Hexadecanoic acid [2-(2,3-dihydro-benzo[1,4]dioxin-6-yl)-2-hydroxy-1-pyrrolidin-1-ylmethyl-ethyl]-amide], the IC50 was 90 nM.
